# In US8048892B2, “Azaquinolone based compounds exhibiting prolyl hydroxylase inhibitory activity, compositions, and uses thereof” (Amgen Inc., priority 2006, dated 2011):
# Biological target: HIF PHD2 (Homo sapiens, UniProt Q9GZT9)
# Assay: PHD2 inhibition assay (TR-FRET, VCB-Eu detection of hydroxylated P564-HIF1α peptide)
# Assay type: biochemical
# Details: 2 nM PHD2, 100 nM P564-HIF1α peptide, 0.25 μM 2-oxoglutarate
# Procedure: Inhibition of HIF PHD2 activity was quantified utilizing the TR-FRET technology. HIF PHD2 catalyzes a hydroxyl modification on the proline residue of the P564-HIF1α peptide substrate (Biotin-DLEMLAPYIPMDDDFQL (SEQ ID NO: 7)) resulting in recognition and binding of the europylated Von Hippel-Lindau protein (pVHL), elongin B and elongin C heterotrimeric (VCB-Eu) complex.
# The PHD2 inhibition assay was executed by addition of freshly dissolved FeCl2 to 178.57 μM (100 μM final concentration) in PHD2 Reaction Buffer containing 30 mM MES, pH 6, 10 mM NaCl, 0.25% Brij-35, 0.01% BSA, and 1% DMSO. 28 μL of the iron solution and 2 μL of inhibitor compounds serially diluted in 100% DMSO (5% DMSO final) were added to black polypropylene 96-well microtiter plates. To that, 10 μL of 10 nM PHD2 (2 nM final) was added to all wells of the plate except for the 8 wells of column 12 (LO control), and allowed to incubate at room temperature on the shaker for one hour. Column 6 was the HI control containing PHD2 enzyme and 5% DMSO vehicle, but no inhibitor compound. To initiate the PHD2 enzymatic reaction, 10 μL of a solution containing 500 nM P564-HIF1α peptide (100 nM final), 10 mM ascorbic acid (2 mM final), and 1.25 μM 2-oxoglutarate (α-ketoglutarate; 0.25 μM final) in PHD2 Reaction Buffer was added to all wells of the plate and allowed to incubate on the shaker at room temperature for one hour.
# The reaction was terminated by addition of 25 μL TR-FRET Buffer (50 mM TRIS-HCl, pH 9, 100 mM NaCl, 0.05% BSA, and 0.5% Tween-20) containing 150 mM succinate (product inhibitor; 50 mM final), 75 nM streptavidin-APC (25 nM final), and 7.5 nM VCB-Eu (2.5 nM final). The TR-FRET detection reagents were placed on a shaker for 1 hour to reach binding equilibrium before reading on the Discovery platform (PerkinElmer). Europium is excited at 315 nm and phosphoresces at 615 nm with a large Stoke's shift. APC, in turn, emits at 655 nm upon excitation at 615 nm. The TR-FRET signal is measured as the ratio of the APC 655 nm signal divided by the internal europium reference 615 nm emission signal.
# The POC (percentage of control) was determined by comparing the signal from hydroxylated peptide substrate in the enzyme reaction containing inhibitor compound with that from PHD2 enzyme with DMSO vehicle alone (HI control), and no enzyme (LO control). POC was calculated using the formula: % control (POC)=(cpd−average LO)/(average HI−average LO)*100. Data (consisting of POC and inhibitor concentration in μM) was fitted to a 4-parameter equation (y=A+((B−A)/(1+((x/C)^D))), where A is the minimum y (POC) value, B is the maximum y (POC), C is the x (cpd concentration) at the point of inflection and D is the slope factor) using a Levenburg-Marquardt non-linear regression algorithm.
# Chain of HIF PHD2 (Q9GZT9 whole entry): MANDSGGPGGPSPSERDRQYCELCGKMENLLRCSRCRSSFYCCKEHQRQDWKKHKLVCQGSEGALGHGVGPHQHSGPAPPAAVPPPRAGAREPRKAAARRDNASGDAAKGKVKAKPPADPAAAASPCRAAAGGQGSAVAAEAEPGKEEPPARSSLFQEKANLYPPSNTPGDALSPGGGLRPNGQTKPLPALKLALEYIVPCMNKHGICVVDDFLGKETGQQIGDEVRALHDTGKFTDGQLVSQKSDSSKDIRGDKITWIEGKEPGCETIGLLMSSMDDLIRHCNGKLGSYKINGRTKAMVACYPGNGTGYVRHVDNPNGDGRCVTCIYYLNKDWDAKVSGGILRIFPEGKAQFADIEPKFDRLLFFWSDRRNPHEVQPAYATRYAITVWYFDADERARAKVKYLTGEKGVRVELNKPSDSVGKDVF
row,Structure (SMILES),IC50
1,"Cn1c(=O)c(C(=O)NCC(=O)O)c(O)c2cc(C3CCCCO3)cnc21 (racemic) [Example 68, (R,S)-2-(4-Hydroxy-1-methyl-2-oxo-6-(tetrahydro-2 H-pyran-2-yl)-1,2-dihydro-1,8-naphthyridine-3-carboxamido)acetic acid]",< 50 nM
2,"Cn1c(=O)c(C(=O)NCC(=O)O)c(O)c2cc(C3CCCO3)c(C(F)(F)F)nc21 (racemic) [Example 99, (R,S) 2-(4-Hydroxy-1-methyl-2-oxo-6-(tetrahydrofuran-2-yl)-7-(trifluoromethyl)-1,2-dihydro-1,8-naphthyridine-3-carboxamido)acetic acid]",< 50 nM
3,"Cn1c(=O)c(C(=O)NCC(=O)O)c(O)c2cc(C3CCOC3)c(C(F)(F)F)nc21 (racemic) [Example 100, (R,S) 2-(4-Hydroxy-1-methyl-2-oxo-6-(tetrahydrofuran-3-yl)-7-(trifluoromethyl)-1,2-dihydro-1,8-naphthyridine-3-carboxamido)acetic acid]",< 50 nM
4,"Cn1c(=O)c(C(=O)NCC(=O)O)c(O)c2cc(C3CCCCO3)cnc21 (single isomer, unassigned) [Example 69, (R)-2-(4-hydroxy-1-methyl-2-oxo-6-(tetrahydro-2 H-pyran-2-yl)-1,2-dihydro-1,8-naphthyridine-3-carboxamido)acetic acid or (S)-2-(4-hydroxy-1-methyl-2-oxo-6-(tetrahydro-2 H-pyran-2-yl)-1,2-dihydro-1,8-naphthyridine-3-carboxamido)acetic acid]",50 to 100 nM
5,"Cn1c(=O)c(C(=O)NCC(=O)O)c(O)c2cc(C3CCCCO3)cnc21 (single isomer, unassigned) [Example 70, (R)-2-(4-Hydroxy-1-methyl-2-oxo-6-(tetrahydro-2 H-pyran-2-yl)-1,2-dihydro-1,8-naphthyridine-3-carboxamido)acetic acid or (S)-2-(4-Hydroxy-1-methyl-2-oxo-6-(tetrahydro-2 H-pyran-2-yl)-1,2-dihydro-1,8-naphthyridine-3-carboxamido)acetic acid]",50 to 100 nM
6,"Cn1c(=O)c(C(=O)NCC(=O)O)c(O)c2cc(C3CCCO3)c(C(F)(F)F)nc21 (single isomer, unassigned) [Example 101, (R)-2-(4-Hydroxy-1-methyl-2-oxo-6-(tetrahydrofuran-2-yl)-7-(trifluoromethyl)-1,2-dihydro-1,8-naphthyridine-3-carboxamido)acetic acid or (S)-2-(4-Hydroxy-1-methyl-2-oxo-6-(tetrahydrofuran-2-yl)-7-(trifluoromethyl)-1,2-dihydro-1,8-naphthyridine-3-carboxamido)acetic acid]",< 50 nM
7,"Cn1c(=O)c(C(=O)NCC(=O)O)c(O)c2cc(C3CCCO3)c(C(F)(F)F)nc21 (single isomer, unassigned) [Example 102, (R)-2-(4-Hydroxy-1-methyl-2-oxo-6-(tetrahydrofuran-2-yl)-7-(trifluoromethyl)-1,2-dihydro-1,8-naphthyridine-3-carboxamido)acetic acid or (S)-2-(4-Hydroxy-1-methyl-2-oxo-6-(tetrahydrofuran-2-yl)-7-(trifluoromethyl)-1,2-dihydro-1,8-naphthyridine-3-carboxamido)acetic acid]",50 to 100 nM
8,"Cn1c(=O)c(C(=O)NCC(=O)O)c(O)c2cc(C3CCOC3)c(C(F)(F)F)nc21 (single isomer, unassigned) [Example 103, (R)-2-(4-Hydroxy-1-methyl-2-oxo-6-(tetrahydrofuran-3-yl)-7-(trifluoromethyl)-1,2-dihydro-1,8-naphthyridine-3-carboxamido)acetic acid or (S)-2-(4-Hydroxy-1-methyl-2-oxo-6-(tetrahydrofuran-3-yl)-7-(trifluoromethyl)-1,2-dihydro-1,8-naphthyridine-3-carboxamido)acetic acid]",< 50 nM
9,"Cn1c(=O)c(C(=O)NCC(=O)O)c(O)c2cc(C3CCOC3)c(C(F)(F)F)nc21 (single isomer, unassigned) [Example 104, (R)-2-(4-Hydroxy-1-methyl-2-oxo-6-(tetrahydrofuran-3-yl)-7-(trifluoromethyl)-1,2-dihydro-1,8-naphthyridine-3-carboxamido)acetic acid or (S)-2-(4-Hydroxy-1-methyl-2-oxo-6-(tetrahydrofuran-3-yl)-7-(trifluoromethyl)-1,2-dihydro-1,8-naphthyridine-3-carboxamido)acetic acid]",50 to 100 nM
10,"Cn1c(=O)c(C(=O)NCC(=O)O)c(O)c2ccc(-c3ccccc3)nc21 [Example 12, 2-(4-Hydroxy-1-methyl-2-oxo-7-phenyl-1,2-dihydro-1,8-naphthyridine-3-carboxamido)acetic acid]",< 50 nM
11,"Cn1c(=O)c(C(=O)NCC(=O)O)c(O)c2ccc(C3=CCCCC3)nc21 [Example 13, 2-(7-Cyclohexenyl-4-hydroxy-1-methyl-2-oxo-1,2-dihydro-1,8-naphthyridine-3-carboxamido)acetic acid]",< 50 nM
12,"Cn1c(=O)c(C(=O)NCC(=O)O)c(O)c2ccc(-c3cccs3)nc21 [Example 14, N-((4-Hydroxy-1-methyl-2-oxo-7-(2-thienyl)-1,2-dihydro-1,8-naphthyridin-3-yl)carbonyl)glycine]",< 50 nM

# Results, then the compound that gave them:
row,IC50,Structure (SMILES)
1,< 50 nM,"Cn1c(=O)c(C(=O)NCC(=O)O)c(O)c2ncc(Br)cc21 [Example 1, N-((7-Bromo-4-hydroxy-1-methyl-2-oxo-1,2-dihydro-1,5-naphthyridin-3-yl)carbonyl)glycine]"
2,< 50 nM,"Cn1c(=O)c(C(=O)NCC(=O)O)c(O)c2ncc(-c3cccs3)cc21 [Example 2, 2-(4-Hydroxy-1-methyl-2-oxo-7-(thiophen-2-yl)-1,2-dihydro-1,5-naphthyridine-3-carboxamido)acetic acid]"
3,50 to 100 nM,"Cn1c(=O)c(C(=O)NCC(=O)O)c(O)c2ncc(-c3ccccc3)cc21 [Example 3, 2-(4-Hydroxy-1-methyl-2-oxo-7-phenyl-1,2-dihydro-1,5-naphthyridine-3-carboxamido)acetic acid]"
4,< 50 nM,"Cn1c(=O)c(C(=O)NCC(=O)O)c(O)c2ncc(C3=CCCC3)cc21 [Example 4, 2-(7-Cyclopentenyl-4-hydroxy-1-methyl-2-oxo-1,2-dihydro-1,5-naphthyridine-3-carboxamido)acetic acid]"
5,< 50 nM,"Cn1c(=O)c(C(=O)NCC(=O)O)c(O)c2ncc(C3CCCC3)cc21 [Example 5, 2-(7-Cyclopentyl-4-hydroxy-1-methyl-2-oxo-1,2-dihydro-1,5-naphthyridine-3-carboxamido)acetic acid]"
6,< 50 nM,"Cn1c(=O)c(C(=O)NCC(=O)O)c(O)c2ncc(C#N)cc21 [Example 6, 2-(7-Cyano-4-hydroxy-1-methyl-2-oxo-1,2-dihydro-1,5-naphthyridine-3-carboxamido)acetic acid]"
7,< 50 nM,"C#Cc1cnc2c(O)c(C(=O)NCC(=O)O)c(=O)n(C)c2c1 [Example 7, 2-(7-Ethynyl-4-hydroxy-1-methyl-2-oxo-1,2-dihydro-1,5-naphthyridine-3-carboxamido)acetic acid]"
8,50 to 100 nM,"CC#Cc1cnc2c(O)c(C(=O)NCC(=O)O)c(=O)n(C)c2c1 [Example 8, 2-(4-Hydroxy-1-methyl-2-oxo-7-(prop-1-ynyl)-1,2-dihydro-1,5-naphthyridine-3-carboxamido)acetic acid]"
9,< 50 nM,"CC(C)C#Cc1cnc2c(O)c(C(=O)NCC(=O)O)c(=O)n(C)c2c1 [Example 9, 2-(4-Hydroxy-1-methyl-7-(3-methylbut-1-ynyl)-2-oxo-1,2-dihydro-1,5-naphthyridine-3-carboxamido)acetic acid]"
10,< 50 nM,"COCC#Cc1cnc2c(O)c(C(=O)NCC(=O)O)c(=O)n(C)c2c1 [Example 10, 2-(4-Hydroxy-7-(3-methoxyprop-1-ynyl)-1-methyl-2-oxo-1,2-dihydro-1,5-naphthyridine-3-carboxamido)acetic acid]"
11,< 50 nM,"Cn1c(=O)c(C(=O)NCC(=O)O)c(O)c2ccc(Br)nc21 [Example 11, 2-(7-Bromo-4-hydroxy-1-methyl-2-oxo-1,2-dihydro-1,8-naphthyridine-3-carboxamido)acetic acid]"
